Test results taken from ChEMBL document CHEMBL4742385 (2019).

Legend:
[1] = target: CDK8/Cyclin C (Homo sapiens) (UniProt P49336+P24863); experiment: Inhibition of human CDK8/Cyc C expressed in Sf21 cells at 1 uM measured after 1 hr by fluorescence plate reader relative to control
[2] = target: Cyclin-C/Cyclin-dependent kinase 19 (Homo sapiens) (UniProt Q9BWU1+P24863); experiment: Inhibition of humanGST-tagged CDK19/Cyc C expressed in Sf21 cells at 1 uM measured after 1 hr by fluorescence plate reader relative to control
RPMI-8226 = experiment: Antiproliferative activity against human RPMI-8226 assessed as inhibition of cell growth at 1 uM after 8 days measured after Celltiter-Glo assay relative to control; format: functional; conditions: Homo sapiens, RPMI-8226, 192 h, time 8 day
SW480 = experiment: Antitumor activity against human SW480 cells xenografted in BALB/c nude mouse assessed as inhibition of tumor growth at 50 mg/kg, po administered once daily measured after 14 days relative to control; format: functional; conditions: time 14 day

inhibition [1] [%]	inhibition [2] [%]	SMILES	inhibition at 1 µM (RPMI-8226) [%]	T/C (SW480) [%]
98	102	Cn1cc(-c2ccncc2/C=C/C(=O)Nc2ccc3c(c2)CN(CC(F)(F)F)C3)cn1	64	31
103	102	Cn1cc(-c2c(F)cncc2/C=C/C(=O)Nc2ccc(CN3CC(F)(F)C3)cc2)cn1	65	36
92	102	O=C(/C=C/c1cnccc1-c1cnn(C2CC2)c1)Nc1ccc(CN2CCOCC2)cc1	53	37
102	100	Cn1cc(-c2ccncc2/C=C/C(=O)Nc2ccc3c(c2)CN(CC(F)(F)F)CC3)cn1	59	43
		O=C(/C=C/c1cnccc1-c1cnn(C2CC2)c1)Nc1ccc(CN2CC(F)(F)C2)cc1	58	51
99	99	O=C(/C=C/c1cnccc1-c1cnn(C2CC2)c1)Nc1ccc(CN2CCOCC2)cc1F	53	36
101	96	O=C(/C=C/c1cncc(F)c1-c1cnn(C2CC2)c1)Nc1ccc(CN2CCOCC2)cc1F	64	36
98	98	O=C(/C=C/c1cnccc1-c1cnn(C2CC2)c1)Nc1ccc2c(c1)CN(C(=O)C(F)(F)F)CC2	57	
92	95	Cn1cc(-c2ccncc2/C=C/C(=O)Nc2ccc(CC#N)cc2)cn1	57	
99	98	COc1ncc(-c2ccncc2/C=C/C(=O)Nc2ccc(CN3CCOCC3)cc2)s1	63	
99	98	O=C(/C=C/c1cnccc1-c1cnn(C2CC2)c1)Nc1ccc2c(ccn2CC(F)(F)F)c1	57	
99	100	Cn1cc(-c2ccncc2/C=C/C(=O)Nc2ccc(CN3CCC(F)(F)C3)cc2)cn1	62	
97	96	Cn1cc(-c2ccncc2/C=C/C(=O)Nc2ccc3c(c2)CCN3)cn1	58	
104	100	O=C(/C=C/c1cncc(F)c1-c1cnn(C2CC2)c1)Nc1ccc2c(c1)CN(CC(F)(F)F)C2	58	29
103	96	COC1CN(Cc2ccc(NC(=O)/C=C/c3cncc(F)c3-c3cnn(C4CC4)c3)c(F)c2)C1	63	
101	101	O=C(/C=C/c1cnccc1-c1cnn(Cc2ccccc2)c1)Nc1ccc(CN2CCOCC2)cc1	63	

inhibition [1] [%]	inhibition [2] [%]	SMILES	inhibition at 1 µM (RPMI-8226) [%]	T/C (SW480) [%]
98	99	Cn1cc(-c2c(F)cncc2/C=C/C(=O)Nc2ccc(CN3CCOCC3)cc2F)cn1	53	
94	90	Cn1cc(-c2ccncc2/C=C/C(=O)Nc2ccc3ncsc3c2)cn1	53	
99	101	O=C(/C=C/c1cnccc1-c1ccc2[nH]cnc2c1)Nc1ccc(CN2CCOCC2)cc1	66	
100	99	Cn1cc(-c2ccncc2/C=C/C(=O)Nc2ccc(CN3CCOCC3)c(C#N)c2)cn1	54	
101	100	COC1CN(Cc2ccc(NC(=O)/C=C/c3cncc(F)c3-c3cnn(C4CC4)c3)cc2)C1	63	
99	93	CN(C)CCOc1ccc(NC(=O)/C=C/c2cnccc2-c2cnn(C)c2)cc1	60	
101	99	Cn1cc(-c2ccncc2/C=C/C(=O)Nc2ccc(CNCC(F)(F)C(F)(F)F)cc2)cn1	56	
96	95	Cn1cc(-c2ccncc2/C=C/C(=O)Nc2ccc3c(c2)CCO3)cn1	55	
103	98	O=C(/C=C/c1cnccc1-c1cnn(C2CC2)c1)Nc1ccc2c(c1)CCN(CC(F)(F)F)C2	49	
97	98	Cn1cc(-c2ccncc2/C=C/C(=O)Nc2ccc(CN3CC(F)(F)OC(F)(F)C3)cc2)cn1	55	
102	99	CC(C)(O)Cc1ccc(NC(=O)/C=C/c2cncc(F)c2-c2cnn(C3CC3)c2)c(F)c1	60	
101	98	O=C(/C=C/c1cnccc1-c1cnn(Cc2ccccn2)c1)Nc1ccc(CN2CCOCC2)cc1	57	
96	97	Cn1cc(-c2ccncc2/C=C/C(=O)Nc2ccc(CN3CC4CCC(C3)O4)cc2)cn1	61	
102	97	CC1CN(Cc2ccc(NC(=O)/C=C/c3cnccc3-c3cnn(C4CC4)c3)cc2)C1	55	
96	92	Cn1cc(-c2ccncc2/C=C/C(=O)Nc2ccc3c(c2)CCCC3=O)cn1	56	
